Data taken from patent publication US9505734B2, “Phenyl C-glucoside derivative containing deoxyglucose structure, preparation method and use thereof” (Tianjin Institute of Pharmaceutical Research, priority 2012, dated 2016).
“Also recorded” adds a separate entry of the source.

What was measured:
[1] = molecular target: hSGLT2 (Homo sapiens (Human), UniProt P31639); assay: IC50 of inhibition on SGLT2; type: cell-based; conditions: for IC50 / Seletivity IC50 (hSGLT1)/IC50 (hSGLT2): Table 3
[2] = influencing factors test: light stability; type: physicochemical; conditions: for Appearance / Number of impurity / Total amount of impurity (%): listed as I-D1-6 raw materials; for storage stability (in words): two-week stability test under light, higher temperature, higher humidity
Excerpt: (§1) The appearance, number of impurity and the amount of impurity (measured by HPLC) are compared with that of day 0.

[3] = influencing factors test: higher humidity stability; type: physicochemical
Excerpt: as §1

[4] = molecular target: hSGLT1 (Homo sapiens (Human), UniProt P13866); assay: IC50 of inhibition on SGLT1; type: cell-based; conditions: for IC50: Table 3
hSGLT1, sequence (P13866 whole entry): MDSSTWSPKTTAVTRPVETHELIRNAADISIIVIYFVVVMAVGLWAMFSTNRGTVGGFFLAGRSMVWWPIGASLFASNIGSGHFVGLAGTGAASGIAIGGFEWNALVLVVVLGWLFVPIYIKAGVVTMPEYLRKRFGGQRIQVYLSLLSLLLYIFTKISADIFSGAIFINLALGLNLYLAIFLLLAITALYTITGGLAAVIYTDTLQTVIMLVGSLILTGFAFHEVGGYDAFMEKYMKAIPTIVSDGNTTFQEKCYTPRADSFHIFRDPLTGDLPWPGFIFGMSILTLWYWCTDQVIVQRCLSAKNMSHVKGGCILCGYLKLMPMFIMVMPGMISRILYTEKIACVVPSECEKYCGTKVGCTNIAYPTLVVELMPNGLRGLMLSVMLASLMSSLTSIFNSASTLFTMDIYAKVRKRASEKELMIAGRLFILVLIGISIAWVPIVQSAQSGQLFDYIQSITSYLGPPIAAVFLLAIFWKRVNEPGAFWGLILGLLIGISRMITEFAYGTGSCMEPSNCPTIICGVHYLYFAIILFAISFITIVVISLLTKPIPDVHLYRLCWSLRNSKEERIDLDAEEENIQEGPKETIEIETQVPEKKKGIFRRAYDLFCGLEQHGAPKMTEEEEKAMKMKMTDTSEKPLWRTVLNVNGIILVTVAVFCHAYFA

[5] = influencing factors test: higher temperature stability; type: physicochemical; conditions: higher temperature (45° C.), listed as I-D1-6 raw materials
Excerpt: as §1

[6] = tested on: SD rats (type 2 diabetes model); assay: model for rat urine glucose excretion (glucose-oxidase method); type: in vivo
Description: The health SD rats are injected intraperitoneally with multiple low doses of streptozotocin for modeling (type 2 diabetes model) after feeding with high-fat and high-sucrose diet, and the content of blood glucose is measured before and after modeling. After the modeling successful, the rats for modeling are randomly divided (8 rats/group) into one blank group (administering the same volume of 0.5% CMC sodium solution) and several groups for compounds to be tested (6 mg/kg) according to the content of 24-hour urine glucose and the body weight. Rats in each group are fasted for 16 hours before experiment. The experimental rats are administered intragastrically with glucose (2 g/kg) at 0.5 h after intragastrical administration with compounds to be tested. The urine is collected at the time-period of 0-12 h after administration, and the urine glucose values are measured at each time-period by glucose-oxidase method.
The inhibiting activity of the cocrystal of I-D1-6 and L-proline on SGLT2 is measured by the model for rat urine glucose excretion.
The health SD rats are injected intraperitoneally with multiple low doses of streptozotocin for modeling (type 2 diabetes model) after feeding with high-fat and high-sucrose diet for one month, and the content of blood glucose is measured before and after modeling. After the modeling successful, the rats for modeling are randomly divided (8 rats/group) into one blank group (administering the same volume of 0.5% CMC sodium solution) and groups of tested compound (6 mg/kg) according to the content of 24-hour urine glucose and the body weight. Rats in each group are fasted for 16 hours before experiment. The experimental rats are administered intragastrically with the glucose (2 g/kg) at 0.5 h after intragastrical administration with the cocrystal of I-D1-6 and L-proline prepared in Example 138. The urine is collected at the time-period of 0-12 h after administration, and the urine glucose values are measured at each time-period by glucose-oxidase method.

[7] = tested on: Mice; conditions: mice, 10 mice/group, single intragastric dose 750 mg/kg, within one week;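 further: mice weighing 18–20 g, both sexes in equal proportion within each group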
Description: Mice (18-20 g) with equal numbers of male and female are divided into groups (10 mice/group), after normal feeding for 3 days, fasted for 12 hours, and then administered intragastrically with a single dose of 750 mg/kg compound respectively.

[8] = higher humidity, day 0, HPLC, listed as I-D1-6 raw materials
[9] = higher humidity, day 7, HPLC, listed as I-D1-6 raw materials
[10] = higher humidity, day 14, HPLC, listed as I-D1-6 raw materials

hSGLT2, sequence (P31639 whole entry): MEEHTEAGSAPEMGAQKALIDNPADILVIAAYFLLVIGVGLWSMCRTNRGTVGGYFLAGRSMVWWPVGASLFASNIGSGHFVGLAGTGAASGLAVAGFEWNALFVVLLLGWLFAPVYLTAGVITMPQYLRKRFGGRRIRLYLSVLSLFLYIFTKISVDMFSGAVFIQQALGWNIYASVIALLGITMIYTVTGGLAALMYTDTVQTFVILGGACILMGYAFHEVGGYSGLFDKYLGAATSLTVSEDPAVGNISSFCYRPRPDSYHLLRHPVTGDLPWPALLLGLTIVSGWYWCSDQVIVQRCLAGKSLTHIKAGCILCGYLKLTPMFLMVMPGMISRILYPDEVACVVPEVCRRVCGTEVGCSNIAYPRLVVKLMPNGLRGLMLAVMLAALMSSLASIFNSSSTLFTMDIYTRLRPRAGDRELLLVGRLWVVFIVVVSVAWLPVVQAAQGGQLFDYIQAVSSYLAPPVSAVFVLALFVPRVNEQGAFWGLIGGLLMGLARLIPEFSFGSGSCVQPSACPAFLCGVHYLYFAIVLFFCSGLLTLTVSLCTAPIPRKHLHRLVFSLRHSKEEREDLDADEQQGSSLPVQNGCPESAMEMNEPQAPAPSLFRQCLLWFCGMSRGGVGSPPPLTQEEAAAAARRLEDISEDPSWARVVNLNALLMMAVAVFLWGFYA

For `CCOc1ccc(Cc2cc(C3OC(C)C(O)C(O)C3O)ccc2Cl)cc1` [I-D1-6, (1S)-1-[4-chloro-3-(4-ethoxybenzyl)phenyl]-1,6-dideoxy-D-glucose], the “inhibition to SGLT2 (in words)” value ([1]; in words) was “inhibitory effect on SGLT2 enzyme; also recorded: much stronger inhibition to SGLT2”, the “selectivity on SGLT1/SGLT2 (in words)” value ([1]; in words) was “much better selectivity on SGLT1/SGLT2” and the Appearance ([2]; light (natural daylight, about 80000 Lx), day 0) was “a white,”. For the same compound, the Number of impurity ([2]; light, day 0, HPLC) was 7, the “Total amount of impurity (%)” value ([2]; light, day 0, HPLC) was 0.89% and the Number of impurity ([2]; light, day 7, HPLC) was 7. For the same compound, the “Total amount of impurity (%)” value ([2]; light, day 7, HPLC) was 0.93%, the Appearance ([2]; light, day 7) was “a white,” and the Number of impurity ([2]; light, day 14, HPLC) was 7. For the same compound, the “Total amount of impurity (%)” value ([2]; light, day 14, HPLC) was 0.96%, the Appearance ([2]; light, day 14) was “a white,” and the Appearance ([3]; higher humidity (30% relative humidity at 30° C.), day 0, listed as I-D1-6 raw materials) was “white,”. For the same compound, the Number of impurity [3, 8] was 7, the “Total amount of impurity (%)” value [3, 8] was 0.89% and the Appearance ([3]; higher humidity, day 7) was “white”. For the same compound, the Number of impurity [3, 9] was 7, the “Total amount of impurity (%)” value [3, 9] was 0.93% and the Appearance ([3]; higher humidity, day 14) was “white”. For the same compound, the Number of impurity [3, 10] was 8, the “Total amount of impurity (%)” value [3, 10] was 1.08% and the “inhibition to SGLT1 (in words)” value ([4]; in words) was “much less inhibition to SGLT1”. For the same compound, the Number of impurity ([5]; day 0, HPLC) was 7, the “Total amount of impurity (%)” value ([5]; day 0, HPLC) was 0.89% and the Appearance ([5]; day 0) was “white,”. For the same compound, the Number of impurity ([5]; day 7, HPLC) was 8, the “Total amount of impurity (%)” value ([5]; day 7, HPLC) was 0.97% and the Appearance ([5]; day 7) was “white,”. For the same compound, the Number of impurity ([5]; day 14, HPLC) was 9, the “Total amount of impurity (%)” value ([5]; day 14, HPLC) was 1.13% and the Appearance ([5]; day 14) was “white,”. The “urine glucose excretion effect (in words)” value ([6]; comparison in words, rat urine glucose excretion model, 6 mg/kg) was “stronger urine glucose excretion effect”.
In the case of `CCOc1ccc(Cc2cc(C3OC(C)C(O)C(O)C3O)ccc2Cl)cc1` [cocrystal of I-D1-6 and L-proline, cocrystal of (1S)-1-[4-chloro-3-(4-ethoxybenzyl)phenyl]-1,6-dideoxy-D-glucose (I-D1-6) and L-proline], the “Selectivity IC50 (hSGLT1)/IC50 (hSGLT2)” value ([1]; Table 4, cocrystal prepared in Example 138) is reported as 375, the “storage stability (in words)” value [2] is reported as “good storage stability” and the “storage stability (in words)” value ([2]; listed as cocrystal) is reported as “better storage stability”. The urine glucose production ([6]; type 2 diabetes model SD rats, 6 mg/kg intragastrically, glucose 2 g/kg at 0.5 h, urine 0-12 h) was 912 mg urine glucose/200 g body weight.
In the case of `CCOc1ccc(Cc2cc([C@]34OC[C@](C)(O3)[C@@H](O)[C@H](O)[C@H]4O)ccc2Cl)cc1` [drawing 292], the “Behaviors after administration with the compound to be tested (deaths)” value (shortened to “Behaviors after administration”) [7] is reported as 3 dead.
With `CCOc1ccc(Cc2cc([C@@]34OC[C@@](CO)(C[C@H](O)[C@H]3O)O4)ccc2Cl)cc1` [drawing 293] the “Behaviors after administration” value [7] was 4 dead.
In the case of `CCOc1ccc(Cc2cc(C3OC(C)CC(O)C3O)ccc2Cl)cc1` (stereo not drawn) [drawing 294], the “Behaviors after administration” value [7] is reported as 1 dead.
For `CC1OC(c2ccc(F)c(Cc3cc4ccccc4s3)c2)CC(O)C1O` (stereo not drawn) [drawing 295], the “Behaviors after administration” value [7] was 1 dead.
For `CCc1ccc(Cc2c(Cl)ccc3c2COC32CC(O)CC(CO)O2)cc1` (stereo not drawn) [drawing 296], the “Behaviors after administration” value [7] was 1 dead.
For `OCC1CC(O)C(O)C(c2ccc(Cl)c(Cc3ccc(O[C@H]4CCOC4)cc3)c2)O1` (stereo partly drawn) [drawing 297], the “Behaviors after administration” value [7] was 2 dead.
With `CCc1ccc(Cc2c(Cl)ccc3c2COC32OC(CO)CC(O)C2O)cc1` (stereo not drawn) [drawing 298] the “Behaviors after administration” value [7] was 5 dead.
For `CCc1ccc(Cc2c(Cl)ccc3c2COC32OC(C)C(O)C(O)C2O)cc1` (stereo not drawn) [drawing 299], the “Behaviors after administration” value [7] was 3 dead.
In the case of `CCOc1ccc(Cc2cc(C3SC(CO)C(O)CC3O)c(OC)cc2C)cc1` (stereo not drawn) [drawing 300], the “Behaviors after administration” value [7] is reported as 0 dead.
With `CCOc1ccc(Cc2cc(C3SC(CO)C(O)CC3O)c(OC)cc2C)cc1` (stereo not drawn) [drawing 301] the “Behaviors after administration” value [7] was 3 dead.
In the case of `CCOc1ccc(Cc2cc(C3SC(C)C(O)C(O)C3O)c(OC)cc2C)cc1` (stereo not drawn) [drawing 302], the “Behaviors after administration” value [7] is reported as 4 dead.
With `CCOc1ccc(Cc2cc([C@]34C[C@@H](O)[C@H](O)[C@](CO)(CO3)O4)ccc2Cl)cc1` [drawing 303] the “Behaviors after administration” value [7] was 2 dead.
With `CCOc1ccc(Cc2cc([C@]34OC[C@](CO)(O3)[C@@H](O)C[C@H]4O)ccc2Cl)cc1` [drawing 304] the “Behaviors after administration” value [7] was 3 dead.
For `Cc1ccc(C2OC(C)C(O)CC2O)cc1Cc1ccc(-c2ccc(F)cc2)s1` (stereo not drawn) [drawing 305], the “Behaviors after administration” value [7] was 0 dead.
In the case of `OCC1CCC(O)C(c2ccc(Cl)c(Cc3ccc(O[C@H]4CCOC4)cc3)c2)O1` (stereo partly drawn) [drawing 306], the “Behaviors after administration” value [7] is reported as 2 dead.
With `CCOc1ccc(Cc2cc(C3CCC(O)C(CO)S3)c(OC)cc2C)cc1` (stereo not drawn) [drawing 307] the “Behaviors after administration” value [7] was 0 dead.
With `COc1ccc(Cc2cc(C3OC(C)C(O)C(O)C3O)ccc2Cl)cc1` (stereo not drawn) [drawing 308] the IC50 [1] was 3.3 nM, the “Seletivity IC50 (hSGLT1)/IC50 (hSGLT2)” value [1] was 26 and the IC50 [4] was 86 nM.
With `CCOc1ccc(Cc2cc(C3OC(C)C(O)C(O)C3O)ccc2Cl)cc1` (stereo not drawn) [drawing 309] the IC50 [1] was 0.67 nM, the “Seletivity IC50 (hSGLT1)/IC50 (hSGLT2)” value [1] was 374 and the IC50 [4] was 251 nM.
In the case of `CCOc1ccc(Cc2cc(C3OC(C)C(O)C(O)C3O)ccc2C)cc1` (stereo not drawn) [drawing 310], the IC50 [1] is reported as 7.8 nM, the “Seletivity IC50 (hSGLT1)/IC50 (hSGLT2)” value [1] is reported as 24 and the IC50 [4] is reported as 187 nM.
